pIC50: −log10 of the molar value. Like-named read-outs stand apart in the source and are kept apart here.
What was measured:
Format in all cases: cell-based
U-87 MG = assay: Growth inhibition (cell proliferation assay), U-87 MG; conditions: read-out: Compound 1 Growth Inhibition IC50
Phospho-4E-BP1(T46) = assay: Luminex multiplex assay, Phospho-4E-BP1(T46); conditions: read-out: p-4E-BP1(T46)
Text: Determination of Phospho-GSK3β(S9), Phospho-PRAS40(T246) and Phospho-4E-BP1(T46) and the Effect of Compound 1 or Rapamycin.
The multiplex Luminex assay format differs from conventional enzyme-linked immunosorbent assay (ELISA) in that the multiplex capture antibody is attached to a polystyrene bead whereas the ELISA capture antibody is attached to the microplate well. The use of the suspension bead-based technology enables the multiplexing capabilities of the Luminex assays. The xMAP® technology uses 5.6 micron polystyrene microspheres, which are internally dyed with red and infrared fluorophores of differing intensities. Each bead is given a unique number, or bead region, allowing differentiation of one bead from another. Beads covalently bound to different specific antibodies can be mixed in the same assay, utilizing a 96-well microplate format. At the completion of the sandwich immunoassay, beads can be read, using the Luminex 100™ or Luminex 200 detection system, in single-file by dual lasers for classification and quantification of each analyte. The Akt-Pathway Phospho 5-plex kit used was custom made and includes the ability to simultaneously measure p-GSK3β (S9), p-PRAS40(T246), and p-4E-BP1(T46).
Cells were plated at the required density. The cells were treated with either Compound 1 or rapamycin over a range of concentrations for 1 hour in 5% CO2 at 37° C. Compound 1 and rapamycin were used at the same concentrations as for the proliferation assay. As for the cell proliferation assay, a reference standard was included in the assay for PC3 cells and the coefficient of variation for assay of p-GSK3β(S9) was 37.8% (n=30), p-PRAS40(T246) was 27.8% (n=30) and for p4E-BP1(T46) was 13.5% (n=4). For three cell lines (HCT-116, MDA-MB-231 and HT29) in the assay for phosphorylation of GSK3β, PRAS40 and 4E-BP1, IGF-I stimulation (500 ng/mL, recombinant human IGF-I) for the last 10 min of incubation was used. The media was aspirated from the wells and the plate was placed on ice. Then 35 μL of Lysis Buffer was added to each well and incubated on ice for at least 30 minutes. During the incubation, the standard curve for each phosphoprotein was prepared. The standards provided were reconstituted and serial dilutions were prepared according to the manufacturer's instructions. At the end of the cell lysis step, […] of the lysate was transferred to a V-bottom plate and spun at 4° C. at 2000 rpm for 5 minutes. Both the 1× Luminex bead and 1× detector antibody solutions were prepared during this time. The 1× bead solution was vortexed and 25 μL was added into each well of a black round bottom plate. Then 50 μL of the 1× detector antibody was added to each well. Fifty microliters (50 μL) of the prepared standards were added to the designated wells. Then 25 μL of the assay diluent was added to each well designated for the compound-treated cell lysates. At the end of the spin, 25 μL of cell lysate was added to the corresponding wells of the black assay plate. The assay plate was covered with the white plate lid and incubated for 3 hours at room temperature on an orbital shaker.
Approximately 10-15 minutes prior to the end of the first incubation, the secondary antibody solution was prepared according to the vendor's protocol. Goat anti-rabbit R-phycoerythrin red fluorescent protein (RPE) supplied as a 10× concentrate was diluted to generate a 1× goat anti-rabbit RPE stock. The 96-well filter plate was pre-wet with 200 μL of 1× Working wash solution. At the end of the 3 hour incubation, a multichannel pipette was used to transfer the entire contents from each assay well into the wells of the filter plate. The liquid from the wells was removed by aspiration with the vacuum manifold. Then 200 μL of 1× Working wash solution was added into each well. The wash solution was aspirated using the vacuum manifold after 15-30 seconds. This wash step was repeated one time. The bottom of the plate was blotted on clean paper towels to remove residual liquid. […]

Phospho-PRAS40(T246) = assay: Luminex multiplex assay, Phospho-PRAS40(T246)
Procedure, shortened: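 Cells (PC3; HCT-116, MDA-MB-231 and HT29 with 500 ng/mL recombinant human IGF-I for the final 10 min) treated with compound or rapamycin over a concentration range for 1 h at 37° C, 5% CO2. Lysates read by bead-based Luminex sandwich immunoassay, 3 h at room temperature, RPE anti-rabbit detection, quantified against phosphoprotein standard curves.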

HCT116 = assay: Growth inhibition (cell proliferation assay), HCT116; conditions: read-out: Compound 1 Growth Inhibition IC50
Akt(S473) = assay: Inhibition of Akt(S473) phosphorylation in cell lines; conditions: read-out: p-Akt (S473)
PC3 = assay: Growth inhibition (cell proliferation assay), PC3; conditions: read-out: Compound 1 Growth Inhibition IC50
mTORC2 = target: T1, mTORC2 (Homo sapiens, UniProt P42345); assay: Inhibition of mTORC2 measured by phosphorylation of pathway markers (FIG. 1); conditions: phosphorylation of pathway markers Akt, PRAS40, GSK-3β, p70S6, S6, 4-EBP1
T1 construct: endogenous in cells; host or cells: PC3, A549, HCT116, U-87 MG, MDA-MB-231, NCI-H23, HT-29
Text: The activity of the TORC1 complex can be followed from the phosphorylation status of 4E-BP1(T46), a direct substrate of mTOR kinase and S6RP(S235/S236), a downstream substrate from mTOR. The activity of the TORC2 complex can be followed directly from the phosphorylation status of Akt(S473) and indirectly from the phosphorylation status of AKT substrates, GSK3β(S9) and PRAS40(T246). […] Full activation of Akt requires an additional phosphorylation on T308 that is done by PDK1 and is speculated to be co-dependent with the TORC2 phosphorylation of the Akt(S473).

S6RP(S235/S236) = assay: Inhibition of S6RP(S235/S236) phosphorylation in cell lines; conditions: read-out: p-S6RP(S235/S236)
p70S6K = assay: Luminex multiplex assay, p70S6K phosphorylation in cell lysates
MDA-MB-231 = assay: Growth inhibition (cell proliferation assay), MDA-MB-231; conditions: read-out: Compound 1 Growth Inhibition IC50

CO[C@H]1CC[C@H](N2C(=O)CNc3ncc(-c4ccc(C(C)(C)O)nc4)nc32)CC1 [Compound 1, 7-(6-(2-hydroxypropan-2-yl)pyridin-3-yl)-1-((1r,4r)-4-methoxycyclohexyl)-3,4-dihydropyrazino-[2,3-b]pyrazin-2(1H)-one]
pIC50 (U-87 MG): 6.10 | pIC50 (Phospho-4E-BP1(T46); A549): 6.48 | pIC50 (Phospho-4E-BP1(T46); HCT116, IGF-I stimulation): 6.41 | pIC50 (Phospho-4E-BP1(T46); HT-29, IGF-I stimulation): 7.15 | pIC50 (Phospho-4E-BP1(T46); MDA-MB-231, IGF-I stimulation): 6.92 | pIC50 (Phospho-4E-BP1(T46); NCI-H23): 6.92 | pIC50 (Phospho-4E-BP1(T46); PC3): 6.39 | pIC50 (Phospho-4E-BP1(T46); U-87 MG): 5.87 | pIC50 (Phospho-PRAS40(T246); A549, read-out: p-PRAS40 (T246)): 6.12 | pIC50 (Phospho-PRAS40(T246); HCT116, IGF-I stimulation, read-out: p-PRAS40 (T246)): 6.37 | pIC50 (Phospho-PRAS40(T246); HCT116 cell line, IGF, read-out: Luminex PRAS40 (IGF)): 6.37 | pIC50 (Phospho-PRAS40(T246); HT-29, IGF-I stimulation, read-out: p-PRAS40 (T246)): 6.46 | pIC50 (Phospho-PRAS40(T246); MDA-MB-231, IGF-I stimulation, read-out: p-PRAS40 (T246)): 6.55 | pIC50 (Phospho-PRAS40(T246); NCI-H23, read-out: p-PRAS40 (T246)): 6.72 | pIC50 (Phospho-PRAS40(T246); PC3, read-out: p-PRAS40 (T246)): 6.85 | pIC50 (Phospho-PRAS40(T246); U87MG cell line, read-out: Luminex PRAS40): 6.44 | pIC50 (Phospho-PRAS40(T246); U-87 MG, read-out: p-PRAS40 (T246)): 6.44 | pIC50 (HCT116): 6.43 | pIC50 (Akt(S473); A549): 6.92 | pIC50 (Akt(S473); HCT116): 7.00 | pIC50 (Akt(S473); HT-29): 6.60 | pIC50 (Akt(S473); MDA-MB-231): 7.40 | pIC50 (Akt(S473); NCI-H23): 7.00 | pIC50 (Akt(S473); PC3): 8.00 | pIC50 (Akt(S473); U-87 MG): 6.82 | pIC50 (PC3): 6.96 | inhibition of mTORC2 (mTORC2): inhibition | pIC50 (S6RP(S235/S236); A549): 7.40 | pIC50 (S6RP(S235/S236); HCT116): 7.10 | pIC50 (S6RP(S235/S236); HT-29): 8.00 | pIC50 (S6RP(S235/S236); MDA-MB-231): 7.52 | pIC50 (S6RP(S235/S236); NCI-H23): 7.15 | pIC50 (S6RP(S235/S236); PC3): 7.70 | pIC50 (S6RP(S235/S236); U-87 MG): 6.72 | pIC50 (p70S6K; HCT116 cell line, IGF, read-out: Luminex p70S6K (IGF)): 6.72 | pIC50 (p70S6K; U87MG cell line, read-out: Luminex p70S6K): 6.99 | pIC50 (MDA-MB-231): 5.75
